These results are taken from US8926966B1 (Regents of the University of California, priority 1990, dated 2015).

For assay [1], the system named is spleen cells of NOD mice. Put plainly: Spleen cell proliferation (recall response to antigens) after tolerization of NOD mice. It counts as cell-based, mouse. The note with it: tested at 12 weeks; for Spleen Cell Proliferation (SI ± SEM) GAD: recall antigen GAD; for Spleen Cell Proliferation (SI ± SEM) GAD Peptides #17: recall antigen GAD peptide #17; for Spleen Cell Proliferation (SI ± SEM) GAD Peptides #34: recall antigen GAD peptide #34; for Spleen Cell Proliferation (SI ± SEM) GAD Peptides #35: recall antigen GAD peptide #35; for Spleen Cell Proliferation (SI ± SEM) hsp Peptide: recall antigen hsp peptide; for Spleen Cell Proliferation (SI ± SEM) β-Gal: recall antigen β-Gal. How it is done:
Incorporation of label was measured by liquid scintillation counting.

The test system of assay [2] is NOD mice. Put plainly: Insulitis score after tolerization of NOD mice. It counts as in vivo, mouse. Particulars: examined at 12 weeks.
For assay [3], the system named is IDDM associated autoantibodies in sera. Put plainly: ELISA of sera on plate-bound human GAD65 peptides. It counts as binding. Particulars: for number of IDDM (at risk, pre-IDDM, at onset) patients positive (X) for the peptide (unlabelled sum line): IDDM sera of Table 11. In short, it runs like this:
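Blinded, coded sera (1/300) bound 1 h at 37 °C to wells coated overnight at 4 °C with peptides (20 ug/ml, pH 9.6), BSA-blocked. Detection with HRP-goat anti-human IgG (1/600), read at 410 nm; positive when sample/negative-control OD410 ≥3.0.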
In general terms: In an ELISA, binding on a coated surface is turned into a signal by an enzyme label.

Assay [4] has as its system spleen cells of NOD mice. The assay is described as follows: Proliferative responses of NOD spleen cells to GAD peptides. The note with it: peptide 7 μM, 5-day culture. It is filed as cell-based, mouse. How it is done: The fine specificity of the anti-GAD T-cell response was mapped using a set of 38 peptides (numbered successively from the N-terminus) that were 20-23 amino acids (aa) long and span the entire GAD65 (Bu, et al., Proc. Natl. Acad. Sci., 89:2115-2119, 1992) sequence with 5aa overlaps (FIG. 10).
Peptides were present in cultures at 7 μM and the label was added during the last 16 hours of a 5-day culture. The peptides were synthesized using standard Fmoc chemistry and purified by reverse phase HPLC (Advanced Chemtech). The sequence of stimulatory peptides are shown below in Table 9.

Assay [5] has as its system NOD mice. Put plainly: GAD immunization of 8 week old NOD mice, IDDM onset. It counts as in vivo, mouse. Particulars: 25 ug i.p. in IFA at 8 weeks, again every 6 weeks. From the text: Breeder mice were purchased from Taconic Farms and housed under specific pathogen-free conditions. Only female NOD mice were used in this study. […] Insulitis is generally observed beginning at 4 weeks of age. […] The incidence of IDDM in female mice is 70-90% by one year of age.
Urine glucose levels were monitored twice weekly. After observing above normal glucose in urea, blood glucose levels were monitored twice weekly.

The subject of assay [6] is autoantibodies to GAD in patient sera. The assay is described as follows: Immunoprecipitation of ^35S-GAD65 / ^35S-GAD67 by sera drawn prior to IDDM onset. It counts as binding, human. Further details: key to band intensity of immunoprecipitated ^35S-GAD: 1 = lowest; 2 = medium; 3 = highest band intensities. How it is done: Islet cells were extracted as previously described by Atkinson, et al. (Lancet, 335:1357-1360, 1990) with the following modifications. […] The protein A Sepharose CL-4B was then boiled in Laemmli sample buffer (Laemmli, Nature, 227:680-685, 1970), and the samples were subjected to SDS-PAGE and fluororadiography (Kodak, X-omat AR5) using Enhance (New England Nuclear). Alternatively, the autoradiographs were analyzed by a BETAGEN (Boston, Mass.) analyzer. Both 64KA positive and negative sera were used in each assay, to serve as interassay controls. All fluororadiographs were analyzed and rated as positive or negative after comparison with the known interassay controls. […] A similar rating procedure was employed for the intensity of bands corresponding to immunoprecipitated ^35S-GAD65 and ^35S-GAD67.
Rat GAD65 and GAD67 cDNAs were subcloned into a bacterial expression system as previously described. Labeling of ^35S-GADs was completed by pulsing IPTG induced bacterium (growing in Minimal Media) for 15 minutes with TRAN ^35S-label (ICN). Cultures were then spun down and resuspended and sonicated in 1 ml of homogenizing buffer (1 mM phenylmethylsulfonyl fluoride (PMSF), 1 mM 2-aminoethylisothiouronium Bromide (AET) and 60 mM potassium phosphate, pH 7.1). After sonication, cell debris was removed by centrifugation and protein concentration was measured (Bradford, Anal. Biochem., 72:248, […]) in the supernatant (supernatant was stored in aliquots at −70° C.).

Setting [7] is: Table 8B: neonatal i.p. with IFA.
Setting [8] is: Table 8C: i.v. at three weeks of age.

Turning to EEILMHCQTTLKYAIKTGHP [Peptide 11], the “Spleen Cell Proliferation (SI ± SEM) GAD” value in the assay with spleen cells of NOD mice [1] (setting [7]) is 21.1 ± 2.2 SI; with spleen cells of NOD mice [1] (setting [8]) it was 12.1 ± 3.5 SI. Further, the “Spleen Cell Proliferation (SI ± SEM) GAD Peptides #17” value in the assay on spleen cells of NOD mice [1] (setting [7]) is 13.7 ± 1.5 SI; in the assay on spleen cells of NOD mice [1] (setting [8]), 6.9 ± 0.4 SI. The “Spleen Cell Proliferation (SI ± SEM) GAD Peptides #34” value with spleen cells of NOD mice [1] (setting [7]) was 11.4 ± 1.5 SI; in the assay with spleen cells of NOD mice [1] (setting [8]), 6.4 ± 1.0 SI. Further, the results for the “Spleen Cell Proliferation (SI ± SEM) GAD Peptides #35” value in the assay on spleen cells of NOD mice [1] (setting [7]) and with spleen cells of NOD mice [1] (setting [8]) were 11.3 ± 0.7 SI and 6.8 ± 0.3 SI, respectively. The “Spleen Cell Proliferation (SI ± SEM) hsp Peptide” value in the assay on spleen cells of NOD mice [1] (setting [7]) was found to be 13.3 ± 0.9 SI; with spleen cells of NOD mice [1] (setting [8]), 8.7 ± 0.9 SI. The “Spleen Cell Proliferation (SI ± SEM) β-Gal” value was 1.0 ± 0.1 SI in the assay on spleen cells of NOD mice [1] (setting [7]) and 1.4 ± 0.4 SI with spleen cells of NOD mice [1] (setting [8]). The “Insultis Score” value with NOD mice [2] (Table 8B: neonatal female NOD mice, i.p. with IFA, scale 0-4) is on record as “≈2.5”. Besides, the “immunoreactivity of serum with GAD65 peptide” value (“immunoreactivity of serum” for short) in assay [3] (IDDM At Risk serum 825, 1/300 dilution) is on record as “X (X = positive for immunoreactivity as defined by 00/background^3.0)”; in assay [3] (IDDM At Risk serum L.I., 1/300 dilution) it was “b (b = borderline response (00/background ?2.5-2.9).)”; in assay [3] (Pre-IDDM serum B.Y. (1), 1/300 dilution), “X (X = positive for immunoreactivity as defined by 00/background^3.0)”; in assay [3] (Pre-IDDM serum J.B. (1), 1/300 dilution) it was “b (b = borderline response (00/background ?2.5-2.9).)”; in assay [3] (Pre-IDDM serum J.B. (2), 1/300 dilution), “b (b = borderline response (00/background ?2.5-2.9).)”; in assay [3] (Pre-IDDM serum R.S. (1), 1/300 dilution), “b (b = borderline response (00/background ?2.5-2.9).)”. Moreover, in assay [3] (Pre-IDDM serum R.S. (2), 1/300 dilution), the “immunoreactivity of serum” value is reported as “b (b = borderline response (00/background ?2.5-2.9).)”. The “number of IDDM (at risk, pre-IDDM, at onset) patients positive (X) for the peptide (unlabelled sum line)” value (“number of IDDM” below) in assay [3] turned out to be 2.
Consider IPPSLRTLEDNEERMSRLSK [Peptide 34], for which the “age of NOD mice at first regularly detectable proliferative response” value (from here on “age of NOD mice”) in the assay with spleen cells of NOD mice [4] is 4 weeks. Further, the “immunoreactivity of serum” value was “X (X = positive for immunoreactivity as defined by 00/background^3.0)” in assay [3] (IDDM At Onset serum 048, 1/300 dilution) and “b (b = borderline response (00/background ?2.5-2.9).)” in assay [3] (IDDM At Onset serum 291, 1/300 dilution). Also, the “number of IDDM” value in assay [3] was found to be 1.
For NMYAMMIARFKMFPEVKEKG [Peptide 17], the “age of NOD mice” value in the assay with spleen cells of NOD mice [4] was determined as 5 weeks.
On to SRLSKVAPVIKARMMEYGTT [Peptide 35], for which the “age of NOD mice” value with spleen cells of NOD mice [4] is 4 weeks. In assay [3], the “number of IDDM” value is recorded as 1. Also, the “immunoreactivity of serum” value in assay [3] (Pre-IDDM serum 723, 1/300 dilution) was “X (X = positive for immunoreactivity as defined by 00/background^3.0)”.
Take “β-Gal.: E. coli β-galactosidase, control antigen purified from recombinant bacteria [reference compound]”: the “Spleen Cell Proliferation (SI ± SEM) CPH” value in the assay with spleen cells of NOD mice [1] (Table 8A: i.v. at 3 weeks, recall antigen CPH) is on record as 11.5 ± 0.9 SI. Moreover, in the assay on spleen cells of NOD mice [1] (Table 8A: i.v. at 3 weeks), the “Spleen Cell Proliferation (SI ± SEM) GAD” value is 15.4 ± 1.8 SI, the “Spleen Cell Proliferation (SI ± SEM) GAD Peptides #17” value worked out at 5.1 ± 0.6 SI, the “Spleen Cell Proliferation (SI ± SEM) GAD Peptides #34” value amounted to 5.1 ± 0.6 SI and the “Spleen Cell Proliferation (SI ± SEM) GAD Peptides #35” value is 4.0 ± 0.2 SI. In the assay with spleen cells of NOD mice [1] (Table 8A: i.v. at 3 weeks), the “Spleen Cell Proliferation (SI ± SEM) hsp Peptide” value turned out to be 6.6 ± 0.5 SI and the “Spleen Cell Proliferation (SI ± SEM) β-Gal” value is 1.1 ± 0.1 SI. For the same molecule, in the assay on NOD mice [2] (Table 8A: female NOD mice, i.v. at 3 weeks of age, 50 μg (hsp-p 0.1 μg) in PBS, scale 0-4, mean ± SE), the “Insultis Score” value was 2.6 ± 0.6. For the same molecule, the “mice that developed IDDM by 27 weeks in age” value in the assay with NOD mice [5] was 6/10. Also, the “mice remaining disease free at 52 weeks of age” value with NOD mice [5] (10 mice per group) came to 2.

B1: GAD67: rat GAD67 expressed in bacteria, ^35S-labeled, in bacterial lysate (protein)
chain: MASSTPSPATSSNAGADPNTTNLRPTTYDTWCGVAHGCTRKLGLKICGFLQRTNSLEEKSRLVSAFRERQASKNLLSCENSDPGARFRRTETDFSNLFAQDLLPAKNGEEQTVQFLLEVVDILLNYVRKTFDRSTKVLDFHHPHQLLEGMEGFNLELSDHPESLEQILVDCRDTLKYGVRTGHPRFFNQLSTGLDIIGLAGEWLTSTANTNMFTYEIAPVFVLMEQITLKKMREIIGWSNKDGDGIFSPGGAISNMYSIMAARYKYFPEVKTKGMAAVPKLVLFTSEHSHYSIKKAGAALGFGTDNVILIKCNERGKIIPADLEAKILDAKQKGFVPLYVNATAGTTVYGAFDPIQEIADICEKYNLWLHVDAAWGGGLLMSRKHRHKLSGIERANSVTWNPHKMMGVLLQCSAILVKEKGILQGCNQMCAGYLFQPDKQYDVSYDTGDKAIQCGRHVDIFKFWLMWKAKGTVGFENQINKCLELAEYLYAKIKNREEFEMVFNGEPEHTNVCFWYIPQSLRGVPDSPERREKLHRVAPKIKALMMESGTTMVGYQPQGDKANFFRMVISNPAATQSDIDFLIEEIERLGQDL
For the molecule B1, the “band intensity of immunoprecipitated ^35S-GAD” value in assay [6] (serum of patient eight, drawn 8 months before IDDM onset) is listed as 0; in assay [6] (serum of patient eleven, drawn 10 months before IDDM onset), 1; in assay [6] (serum of patient five, drawn 34 months before IDDM onset), 0; in assay [6] (serum of patient nine, drawn 42 months before IDDM onset), 0; in assay [6] (serum of patient one, drawn 9 months before IDDM onset), 1; in assay [6] (serum of patient seven, drawn 3 months before IDDM onset), 1. Moreover, the “band intensity of immunoprecipitated ^35S-GAD” value in assay [6] (serum of patient six, drawn 11 months before IDDM onset) is 1; in assay [6] (serum of patient ten, drawn 25 months before IDDM onset), 1; in assay [6] (serum of patient three, drawn 14 months before IDDM onset), 0; in assay [6] (serum of patient twelve, drawn 4 months before IDDM onset), 0; in assay [6] (serum of patient two, drawn 6 months before IDDM onset), 2; in assay [6] (serum of patient, drawn 66 months before IDDM onset), 0.
